Assay results: patent publication US12378204B2, “Triazole compounds and preparation method therefor and use thereof” (WUHAN LL SCIENCE AND TECHNOLOGY DEVELOPMENT CO., LTD., priority 2019, dated 2025)
pIC50: −log10 of the molar value.

Legend:
Assay type in all cases: cell-based
[1] = molecular target: T1, hLPAR1 (human lysophosphatidic acid receptor 1) (Homo sapiens, UniProt Q92633); assay: FLIPR intracellular calcium assay, hLPAR1 expressed in CHO-K1 cells; conditions: antagonism of 1 μM LPA-induced calcium increase, CHO-K1 cells expressing hLPAR1; read-out: LPAR1 IC50
T1 construct: expressed in transfected cells
Description: The antagonist property of the compounds disclosed herein was determined using the FLIPR (fluorescence imaging plate reader) method, wherein the compounds are inhibitors for the intracellular calcium increase induced by activation of hLPAR1 (human lysophosphatidic acid receptor 1, accession No. NM_001401.4) expressed in CHO-K1 cells (Chinese hamster ovary cells K1, ATCC).
CHO-K1 cells stably expressing hLPAR1 were cultured in F-12 medium containing 10% FBS (fetal bovine serum, Gibco, 10099-141), 1% penicillin-streptomycin (Gibco, 15140-122) and 0.4 mg/mL hygromycin B (Gibco, 10687010) in a cell incubator (37° C., […]). During 18-24 h prior to the FLIPR experiment, cells at 250,000 cells/mL were seeded into a 96-well plate (25,000 cells/well) and incubated overnight in the cell incubator. On the day of the experiment, the medium was discarded and the cells were washed in a FLIPR buffer (0.3 mL of probenecid (Thermo, P36400), 0.6 mL of 1 M HEPES (Invitrogen, 15630080) and 29.1 mL of HBSS (Invitrogen, 14065056) per 30 mL of buffer). Each well was added with 75 μL of 1 mM Fluo-4 AM fluorescent dye (Thermo, F14202) and then the cells were subjected to dye-loading incubation at 37° C. for 1.0 h. The 96-well plate was then washed once with buffer, added with a buffer containing a test compound or vehicle at 50 μL per well and then incubated for 30 min at room temperature. The cell plate was then placed in the FLIPR for baseline fluorescence measurements (excitation at 485 nm and emission at 525-535 nm). An agonist (oleoyl-L-α-lysophosphatidic acid sodium salt (Sigma, L7260) at a final concentration of 1 μM) or a vehicle (ultrapure water) was then added at 50 μL/well, fluorescence values were measured for 2 min at 1-second intervals, and finally the output fluorescence counts were analyzed.

[2] = tested on: A2058 (human melanoma cells); assay: A2058 cell scratch assay (cell migration inhibition); conditions: A2058 scratch area 0 h vs 24 h, 10 μM LPA, read-out: Cell migration inhibition rate
Description: The activity of the compounds disclosed herein at the cell level in vitro is evaluated by A2058 (human melanoma cells, Beina Bio, BNCC341099) cell scratch assay. The inhibitory activity of the compounds against LPAR1 can be reflected by inhibition of cell scratch healing.
A2058 cells in a T75 cm^2 cell culture flask were digested and gently pipetted into single cells, adjusted to a cell density of 4×10^5 cells/mL, and then seeded into a 24-well plate. After the cell confluence reached 80%, the cell culture plate was taken out and the original medium was discarded. Serum-free medium was then added, and the cells were starved overnight in an incubator (37° C., 5% CO2). The cell culture plate was then taken out, and cell scratches were made along the diameter of the wells using a 200 μL pipette tip. The cell culture plate was then added with 500 μL of serum-free medium and then shaken gently to wash away the residual cells on the scratched surface, and this was repeated twice. The medium was discarded and 500 μL of 1% FBS medium containing the compound was then added, and the mixture was incubated at 37° C. for 30 min. […] Olympus CKX53 was used to observe the scratches, and MShot image analysis system was used to take pictures and measure the scratch area at 0 h. Then the cell culture plate was incubated in the incubator (37° C., 5% CO2). 24 h later, the scratches were observed again with Olympus CKX53, and MShot image analysis system was used to take pictures and measure the scratch area at 24 h. Cell migration inhibition rate was calculated according to the following formula: […]

[3] = In vitro cytotoxicity assay in HepG2 cells, CCK-8 method; conditions: human, 48 h incubation
Description: In vitro cytotoxicity assay for the compounds disclosed herein was performed in HepG2 cells using the CCK-8 method. HepG2 cells (Beina Bio) in the logarithmic growth phase were collected, the concentration of cell suspension was adjusted, and then the cells were plated on a 96-well cell culture plate at 50,000 cells/well. • The cells were then incubated overnight in a cell incubator (5% CO2, 37° C.), and after 80-90% cell confluence was achieved, test compounds or vehicle (DMSO) at various concentration gradients were added after medium change. The resulting mixture was incubated in the cell incubator (5% CO2, 37° C.) for 48 h. After the treatment, the medium in the plate was discarded. The plate was washed twice with PBS, added with CCK-8 working solution (Beyotime) at 100 μL per well, and then incubated at 37° C. for 1.5 h in the dark. Absorbance at OD450nm was measured for each well on a microplate reader, and CC50 value of each compound was analyzed and calculated.

T1 sequence (Q92633 whole entry): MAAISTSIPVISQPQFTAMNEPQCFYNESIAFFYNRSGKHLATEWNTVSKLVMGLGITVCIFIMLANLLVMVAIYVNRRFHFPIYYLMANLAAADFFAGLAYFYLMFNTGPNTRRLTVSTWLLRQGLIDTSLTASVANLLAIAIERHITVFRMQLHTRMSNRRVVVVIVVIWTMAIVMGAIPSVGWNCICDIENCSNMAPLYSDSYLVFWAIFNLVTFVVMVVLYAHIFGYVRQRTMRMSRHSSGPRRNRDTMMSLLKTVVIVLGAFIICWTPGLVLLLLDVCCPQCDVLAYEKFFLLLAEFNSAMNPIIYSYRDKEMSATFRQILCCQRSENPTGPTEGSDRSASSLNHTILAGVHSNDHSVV

Row | Compound | pIC50 [1] | inhibition [2] | CC50 at 48 h [3]
1 | Cn1nnc(C#CO[C@H]2CCC[C@H](C(=O)O)C2)c1COc1nccc(C2CC2)n1 (racemic) [Compound 39] | ≥ 7.30 | – | –
2 | CN(C(=O)Cc1c(-c2ccc(O[C@H]3CCC[C@H](C(=O)O)C3)cc2)nnn1C)C1CCCC1 (racemic) [Compound 19] | 6.52 to 7.30 | 0 to 30% | > 200000 nM
3 | Cn1nnc(-c2ccc(O[C@H]3CCC[C@H](C(=O)O)C3)cc2)c1CN1CCN(Cc2ccccc2)C1=O (racemic) [Compound 17, (+/−)-(1S,3S)-3-(4-(5-((3-benzyl-2-carbonylimidazolidin-1-yl)methyl)-1-methyl-1H-1,2,3-triazol-4-yl)phenoxy)cyclohexane-1-carboxylic acid] | 6.52 to 7.30 | 0 to 30% | > 200000 nM
4 | Cn1nnc(-c2ccc(O[C@H]3CCC[C@H](C(=O)O)C3)cc2)c1Cn1ccn(Cc2ccccc2)c1=O (racemic) [Compound 16, (+/−)-(1S,3S)-3-(4-(5-((3-benzyl-2-carbonyl-2,3-dihydro-1H-imidazol-1-yl)methyl)-1-methyl-1H-1,2,3-triazol-4-yl)phenoxy)cyclohexane-1-carboxylic acid] | 5.00 to 6.52 | 30 to 50% | > 200000 nM
5 | Cn1nnc(-c2ccc(O[C@H]3CCC[C@H](C(=O)O)C3)cc2)c1NCc1ccccc1 (racemic) [Compound 24, (+/−)-(1S,3S)-3-(4-(5-(benzylamino)-1-methyl-1H-1,2,3-triazol-4-yl)phenoxy) cyclohexane-1-carboxylate] | 5.00 to 6.52 | 0 to 30% | > 200000 nM
6 | Cn1nnc(-c2ccc(O[C@H]3CCC[C@H](C(=O)O)C3)cc2)c1CS(=O)(=O)NC1CCCC1 (racemic) [Compound 33] | 5.00 to 6.52 | – | –
7 | Cn1nnc(-c2ccc(O[C@H]3CCC[C@H](C(=O)O)C3)cc2)c1NC(=O)Cc1ccccc1 (racemic) [Compound 37] | 5.00 to 6.52 | – | –
8 | Cn1nnc(-c2ccc(O[C@H]3CCC[C@H](C(=O)O)C3)cc2)c1-c1cn(Cc2ccccc2)c(=O)o1 [Compound 8] | 6.52 to 7.30 | 0 to 30% | > 200000 nM
9 | CN(Cc1ccccc1)C(=O)OCc1c(-c2ccc(O[C@H]3CCC[C@H](C(=O)O)C3)o2)nnn1C (racemic) [Compound 12] | 5.00 to 6.52 | 0 to 30% | > 200000 nM
10 | CN(C(=O)OCc1c(-c2ccc(O[C@H]3CCC[C@H](C(=O)O)C3)cc2)nnn1C1CC1)C1CCCC1 [Compound 35] | 5.00 to 6.52 | – | –
11 | Cn1nnc(-c2ccc(O[C@H]3CCC[C@H](C(=O)O)C3)c(C(F)(F)F)n2)c1C1CN(C2CCCC2)C(=O)O1 (some centres unmarked) [Compound 29] | 5.00 to 6.52 | 0 to 30% | > 200000 nM
12 | Cc1ncc(-c2c(-c3ccc(O[C@H]4CCC[C@H](C(=O)O)C4)cc3)nnn2C)o1 (racemic) [Compound 15, (+/−)-(1S,3S)-3-(4-(1-methyl-5-(2-methyloxazol-5-yl)-1H-1,2,3-triazol-4-yl)phenoxy) cyclohexane-1-carboxylic acid] | 5.00 to 6.52 | 30 to 50% | > 200000 nM
13 | CN(Cc1ccccc1)C(=O)OCc1c(-c2ccc(OCCC(=O)O)cc2)nnn1C [Compound 11, 3-(4-(5-(((benzyl(methyl)carbamoyl)oxo)methyl)-1-methyl-1H-1,2,3-triazol-4-yl)phenoxy)propionic acid] | 6.52 to 7.30 | 0 to 30% | > 200000 nM
14 | Cn1nnc(-c2ccc(O[C@H]3CCC[C@H](C(=O)O)C3)cc2)c1COC1CCCC1 (racemic) [Compound 21, (+/−)-(1S,3S)-3-(4-(5-((cyclopentyloxy)methyl)-1-methyl-1H-1,2,3-triazol-4-yl)phenoxy)cyclohexane-1-carboxylic acid] | 6.52 to 7.30 | 30 to 50% | > 200000 nM
15 | CN(C(=O)NCc1c(-c2ccc(O[C@H]3CCC[C@H](C(=O)O)C3)cc2)nnn1C)C1CCCC1 (racemic) [Compound 30, (+/−)-(1S,3S)-3-(4-(5-((3-cyclopentyl-3-methylureido)methyl)-1-methyl-1H-1,2,3-triazol-4-yl)phenoxy)cyclohexane-1-carboxylic acid] | 6.52 to 7.30 | 30 to 50% | > 200000 nM
16 | Cn1nnc(-c2ccc(O[C@H]3CCC[C@H](C(=O)O)C3)cc2)c1COCc1ccccc1 (racemic) [Compound 23, (+/−)-(1S,3S)-3-(4-(5-((benzyloxy)methyl)-1-methyl-1H-1,2,3-triazol-4-yl)phenoxy)cyclohexane-1-carboxylic acid] | 6.52 to 7.30 | 30 to 50% | > 200000 nM
17 | Cc1nnn(-c2ccc(O[C@H]3CCC[C@H](C(=O)O)C3)cc2)c1N(C)C(=O)OC1CCCC1 (racemic) [Compound 34] | 5.00 to 6.52 | – | –
18 | CN(Cc1ccccc1)C(=O)OCc1cn(-c2ccc(O[C@H]3CCC[C@H](C(=O)O)C3)cc2)nn1 (racemic) [Compound 6, (+/−)-(1S,3S)-3-(4-(4-(((benzyl(methyl)carbamoyl)oxo)methyl)-1H-1,2,3-triazol-1-yl)phenoxy)cyclohexane-1-carboxylic acid] | 6.52 to 7.30 | 30 to 50% | > 200000 nM
19 | CN(Cc1ccccc1)C(=O)NCc1c(-c2ccc(O[C@H]3CCC[C@H](C(=O)O)C3)cc2)nnn1C (racemic) [Compound 1] | 6.52 to 7.30 | 30 to 50% | > 200000 nM
20 | CN(Cc1ccccc1)C(=O)OCc1c(-c2ccc(N[C@H]3CCC[C@H](C(=O)O)C3)cc2)nnn1C [Compound 13, 3-((4-(5-(((benzyl(methyl)carbamoyl)oxo)methyl)-1-methyl-1H-1,2,3-triazol-4-yl)phenyl)amino)cyc lohexanecarboxylic acid] | 6.52 to 7.30 | 0 to 30% | > 200000 nM
21 | Cn1nnc(-c2ccc(O[C@H]3CCC[C@H](C(=O)O)C3)c(C(F)(F)F)n2)c1CNC(=O)OC1CCCC1 (racemic) [Compound 28, (+/−)-(1S,3S)-3-((6-(5-((((cyclopentyloxy)carbonyl)amino)methyl)-1-methyl-1H-1,2,3-triazol-4-yl)-2-(trifluoromethyl)pyridin-3-yl)oxo)cyclohexane-1-carboxylic acid] | 6.52 to 7.30 | 50 to 70% | > 200000 nM
22 | CN(C(=O)CCc1nnn(C)c1-c1ccc(O[C@H]2CCC[C@H](C(=O)O)C2)c(C(F)(F)F)n1)C1CCCC1 (racemic) [Compound 27-B, (+/−)-(1S,3S)-3-((6-(4-(3-(cyclopentyl(methyl)amino)-3-carbonylpropyl)-1-methyl-1H-1,2,3-triazol-5-yl)-2-(trifluoromethyl)pyridin-3-yl)oxo)cyclohexane-1-carboxylic acid] | 5.00 to 6.52 | 0 to 30% | > 200000 nM
23 | Cn1nnc(-c2ccc(O[C@H]3CCC[C@H](C(=O)O)C3)cc2)c1CNc1ncc(C2CCCC2)o1 (racemic) [Compound 38] | 5.00 to 6.52 | – | –
24 | CN(Cc1ccccc1)C(=O)OCc1c(C2CC2O[C@H]2CCC[C@H](C(=O)O)C2)nnn1C (mixture of isomers) [Compound 32] | 5.00 to 6.52 | – | –
25 | Cn1nnc(-c2ccc(O[C@H]3CCC[C@H](C(=O)O)C3)cc2)c1NCC1CCCC1 (racemic) [Compound 36] | 5.00 to 6.52 | – | –
